# Laboratory results taken from PMC8206213, “An L-2-hydroxyglutarate biosensor based on specific transcriptional regulator LhgR” (Nature Communications, 2021).
# Several values for one entry are separate records, joined by “and”; a condition that tells them apart may be missing. Identical values can stand only once.
# Columns and labels:
# [1] = system: LHGFR0N7C expressed in HEK293FT cells; experiment: Specificity of LHGFR0N7C expressed in permeabilized HEK293FT cells, 1 mM compounds; type: cell-based, human (HEK293FT cells); details: Supplementary Fig. 17d; Control about 1
# Protocol: (§1) To characterize the sensitivity and specificity of LHGFR expressed in HEK293FT cells, cells were trypsinized 48 h following transfection and suspended in 1× Hank’s balanced salt solution supplemented with 20 mM HEPES. […] Digitonin at a concentration of 10 μM was used to induce cell permeabilization and deplete intracellular L-2-HG for in vivo response curves construction. Then, the fluorescence intensities were determined by a SpectraMax i3 fluorescence plate reader (Molecular Devices, USA) with excitation at 430 nm and emission at 485 nm (mTFP) and 528 nm (Venus). Basal L-2-HG concentration in HEK293FT cells under physiological conditions was determined by substituting the emission ratios of non-permeabilized HEK293FT cells into the calibrated in vivo response curves.
# LhgO = experiment: Enzymatic assay of LhgO in crude extracts of P. putida KT2440 derivatives grown on different carbon sources (induction of lhgO under LhgR control); type: cell-based, Pseudomonas putida
# Protocol: The cells were harvested at mid-log phase, washed twice and resuspended in phosphate-buffered saline (PBS), then lysed by sonication on ice after the addition of 1 mM phenylmethylsulfonyl fluoride (PMSF). […] Protein concentrations of the supernatants were determined using the Bradford protein assay kit (Sangon, China). […] The 800 μL reaction solution contained 0.1 mM […], 0.05 mM DCPIP, 0.2 mM phenazine methosulfate (PMS) in PBS and 40 μL crude extracts.
# [2] = system: LHGFR0N3C expressed in HEK293FT cells; experiment: Specificity of LHGFR0N3C expressed in permeabilized HEK293FT cells, 1 mM compounds; type: cell-based, human (HEK293FT cells)
# Protocol: as §1
# LHGFR0N7C = experiment: Influence of other compounds on the response of purified LHGFR0N7C to L-2-HG; type: binding, Pseudomonas putida W619
# Protocol: Purified L-2-HG biosensors and different compounds were diluted by 50 mM Tris-HCl buffer (pH 7.4), mixed together in a black 96-well plate at a volume ratio of 3:1, and the fluorescence intensities were measured using an EnSight microplate reader (PerkinElmer, USA) with excitation at 430 nm, emission at 485 nm (mTFP) and 528 nm (Venus). […] The [L-2-HG], Kd, and p refer to the L-2-HG concentration, apparent dissociation constant, and Hill slope, respectively. Emission spectra were recorded at 430 nm excitation, in steps of 2 nm. Excitation spectra were recorded using emission at 550 nm, excitation from 380 to 535 nm in steps of 2 nm.
# [3] = system: LHGFR0N7C expressed in E. coli BL21(DE3); experiment: Specificity of LHGFR0N7C expressed in E. coli BL21(DE3), 1 mM compounds; type: cell-based; details: Supplementary Fig. 13c
# Protocol: To characterize the sensitivity and specificity of LHGFR expressed in E. coli BL21(DE3), 90 μL cell suspensions following 8 h carbon starvation were mixed with 10 μL increasing concentrations of L-2-HG or other compounds, and then added into a black 96-well plate (total 100 μL/per well), the fluorescence intensities were determined using an EnSight microplate reader (PerkinElmer, USA) and the following instrument settings: excitation at 430 nm, emission at 485 nm (mTFP) and 528 nm (Venus), time intervals of 5 min, the temperature at 37 °C, and shake at 180 rpm.
smiles,measurement,setting,value
"O=C(O)CC[C@H](O)C(=O)O [L-2-HG, L-2-Hydroxyglutarate]",Normalized emission ratio,[1],1.4262 and 1.43 and 1.452
same,LhgO activity,LhgO; crude extract of DcsiRDcsiDDlhgO-pME6032-F2-lhgR-F1-lhgO grown with the compound as sole carbon source,0.02147 and 0.02016 and 0.02474
same,LhgO activity,LhgO; crude extract of DcsiRDcsiDDlhgO-pME6032 grown with the compound as sole carbon source,0.00119 and 0.00104 and 0.00167
same,LhgO activity,LhgO; crude extract of DcsiRDlhgO-pME6032-F2-lhgR-F1-lhgO grown with the compound as sole carbon source,0.02241 and 0.0245 and 0.02829
same,Induction of lhgO expression / effector molecule of LhgR,LhgO; gene segment F2-lhgR-F1-lhgO in P. putida KT2440 derivatives,can induce the expression of lhgO
same,Increase of the emission ratio of LHGFR0N3C,[2]; 10 μM digitonin-permeabilized HEK293FT cells,Only exogenous L-2-HG could significantly increase the emission ratio
same,Normalized emission ratio,"[2]; 1 mM compound, cells permeabilized with 10 μM digitonin, normalized to control",1.418 and 1.367 and 1.404
same,Emission ratio of 528/485,"LHGFR0N7C; L-2-HG concentration 0.01, in the absence of 2-KG, Suppl. Fig. 9h",1.669 and 1.681 and 1.673
same,Emission ratio of 528/485,"LHGFR0N7C; L-2-HG concentration 0.01, in the absence of D-2-HG, Suppl. Fig. 9f",1.668 and 1.665 and 1.6772
same,Emission ratio of 528/485,"LHGFR0N7C; L-2-HG concentration 0.01, in the presence of 2-KG, Suppl. Fig. 9h",1.723
same,Emission ratio of 528/485,"LHGFR0N7C; L-2-HG concentration 0.01, in the presence of D-2-HG, Suppl. Fig. 9f",1.965 and 1.961 and 1.978
same,Emission ratio of 528/485,"LHGFR0N7C; L-2-HG concentration 0.1, in the absence of D-2-HG, Suppl. Fig. 9f",1.677 and 1.673 and 1.693
same,Emission ratio of 528/485,"LHGFR0N7C; L-2-HG concentration 0.1, in the presence of D-2-HG, Suppl. Fig. 9f",1.971 and 1.964 and 1.956
same,Emission ratio of 528/485,"LHGFR0N7C; L-2-HG concentration 0.2, in the absence of D-2-HG, Suppl. Fig. 9f",1.691 and 1.69 and 1.731
same,Emission ratio of 528/485,"LHGFR0N7C; L-2-HG concentration 0.2, in the presence of D-2-HG, Suppl. Fig. 9f",1.971 and 1.94 and 1.9794
same,Emission ratio of 528/485,"LHGFR0N7C; L-2-HG concentration 1, in the absence of D-2-HG, Suppl. Fig. 9f",1.801 and 1.777 and 1.826
same,Emission ratio of 528/485,"LHGFR0N7C; L-2-HG concentration 1, in the presence of D-2-HG, Suppl. Fig. 9f",2.027 and 1.982 and 2.045
same,Emission ratio of 528/485,"LHGFR0N7C; L-2-HG concentration 2, in the absence of D-2-HG, Suppl. Fig. 9f",1.915 and 1.897 and 1.932
same,Emission ratio of 528/485,"LHGFR0N7C; L-2-HG concentration 2, in the presence of D-2-HG, Suppl. Fig. 9f",2.096 and 2.057 and 2.13
same,Emission ratio of 528/485,"LHGFR0N7C; L-2-HG concentration 10, in the absence of D-2-HG, Suppl. Fig. 9f",2.29 and 2.251 and 2.3138
same,Emission ratio of 528/485,"LHGFR0N7C; L-2-HG concentration 10, in the presence of D-2-HG, Suppl. Fig. 9f",2.341 and 2.308 and 2.373
same,Emission ratio of 528/485,"LHGFR0N7C; L-2-HG concentration 20, in the absence of 2-KG, Suppl. Fig. 9h",2.356 (2×) and 2.408
same,Emission ratio of 528/485,"LHGFR0N7C; L-2-HG concentration 20, in the absence of D-2-HG, Suppl. Fig. 9f",2.392 and 2.365 and 2.398
same,Emission ratio of 528/485,"LHGFR0N7C; L-2-HG concentration 20, in the presence of 2-KG, Suppl. Fig. 9h",2.43 and 2.42 and 2.428
same,Emission ratio of 528/485,"LHGFR0N7C; L-2-HG concentration 20, in the presence of D-2-HG, Suppl. Fig. 9f",2.458 and 2.457 and 2.465
same,Emission ratio of 528/485,"LHGFR0N7C; L-2-HG concentration 100, in the absence of 2-KG, Suppl. Fig. 9h",2.538 and 2.5321 and 2.598
same,Emission ratio of 528/485,"LHGFR0N7C; L-2-HG concentration 100, in the absence of D-2-HG, Suppl. Fig. 9f",2.581 and 2.561 and 2.566
same,Emission ratio of 528/485,"LHGFR0N7C; L-2-HG concentration 100, in the presence of 2-KG, Suppl. Fig. 9h",2.5747 and 2.606 and 2.576
same,Emission ratio of 528/485,"LHGFR0N7C; L-2-HG concentration 100, in the presence of D-2-HG, Suppl. Fig. 9f",2.5851 and 2.631 and 2.587
same,Emission ratio of 528/485,"LHGFR0N7C; L-2-HG concentration 200, in the absence of 2-KG, Suppl. Fig. 9h",2.539 and 2.563 and 2.555
same,Emission ratio of 528/485,"LHGFR0N7C; L-2-HG concentration 200, in the absence of D-2-HG, Suppl. Fig. 9f",2.5575 and 2.555 and 2.59
same,Emission ratio of 528/485,"LHGFR0N7C; L-2-HG concentration 200, in the presence of 2-KG, Suppl. Fig. 9h",2.617 and 2.618 and 2.612
same,Emission ratio of 528/485,"LHGFR0N7C; L-2-HG concentration 200, in the presence of D-2-HG, Suppl. Fig. 9f",2.597 and 2.613 and 2.641
same,Emission ratio of 528/485,"LHGFR0N7C; L-2-HG concentration 1000, in the absence of 2-KG, Suppl. Fig. 9h",2.624 and 2.621 and 2.641
same,Emission ratio of 528/485,"LHGFR0N7C; L-2-HG concentration 1000, in the absence of D-2-HG, Suppl. Fig. 9f",2.621 and 2.615 and 2.63
same,Emission ratio of 528/485,"LHGFR0N7C; L-2-HG concentration 1000, in the presence of 2-KG, Suppl. Fig. 9h",2.674 and 2.614 and 2.6567
same,Emission ratio of 528/485,"LHGFR0N7C; L-2-HG concentration 1000, in the presence of D-2-HG, Suppl. Fig. 9f",2.625 and 2.6112 and 2.6354
same,Emission ratio of 528/485,"LHGFR0N7C; L-2-HG concentration 2000, in the absence of 2-KG, Suppl. Fig. 9h",2.674 and 2.655 and 2.638
same,Emission ratio of 528/485,"LHGFR0N7C; L-2-HG concentration 2000, in the absence of D-2-HG, Suppl. Fig. 9f",2.642 and 2.658 and 2.618
same,Emission ratio of 528/485,"LHGFR0N7C; L-2-HG concentration 2000, in the presence of 2-KG, Suppl. Fig. 9h",2.683 and 2.662 and 2.678
same,Emission ratio of 528/485,"LHGFR0N7C; L-2-HG concentration 2000, in the presence of D-2-HG, Suppl. Fig. 9f",2.621 and 2.633 and 2.649
same,Emission ratio,"LHGFR0N7C; Suppl. Fig. 9b, L-2-HG alone or with the compound, three replicates",2.613 and 2.611 and 2.604
same,normalized emission ratio of biosensor expressed in E. coli,[3]; time 0 min,1.016 and 1.006 and 1.026
same,normalized emission ratio of biosensor expressed in E. coli,[3]; time 5 min,1.0991 and 1.081 and 1.1
same,normalized emission ratio of biosensor expressed in E. coli,[3]; time 10 min,1.206 and 1.179 and 1.184
same,normalized emission ratio of biosensor expressed in E. coli,[3]; time 15 min,1.293 and 1.273 and 1.276
same,normalized emission ratio of biosensor expressed in E. coli,[3]; time 20 min,1.341 and 1.328 and 1.319
same,normalized emission ratio of biosensor expressed in E. coli,[3]; time 25 min,1.35 and 1.357 and 1.333
same,normalized emission ratio of biosensor expressed in E. coli,[3]; time 30 min,1.374 and 1.365 and 1.366
same,normalized emission ratio of biosensor expressed in E. coli,[3]; time 35 min,1.386 and 1.367 and 1.374
same,normalized emission ratio of biosensor expressed in E. coli,[3]; time 40 min,1.391 and 1.384 and 1.386
same,normalized emission ratio of biosensor expressed in E. coli,[3]; time 45 min,1.414 and 1.39 and 1.389
same,normalized emission ratio of biosensor expressed in E. coli,[3]; time 50 min,1.407 and 1.378 and 1.396
same,normalized emission ratio of biosensor expressed in E. coli,[3]; time 55 min,1.415 and 1.39 and 1.4085
same,normalized emission ratio of biosensor expressed in E. coli,[3]; time 60 min,1.43 and 1.394 and 1.408
same,normalized emission ratio of biosensor expressed in E. coli,[3]; time 65 min,1.417 and 1.4114 and 1.411
same,normalized emission ratio of biosensor expressed in E. coli,[3]; time 70 min,1.41 and 1.402 and 1.422
same,normalized emission ratio of biosensor expressed in E. coli,[3]; time 75 min,1.393 and 1.405 and 1.423
